How the values were obtained:
lysozyme = assay: ESI-MS of lysozyme glycoforms after incubation with D-ribose; conditions: 37° C., 5 days; for Peak area as % of total area of all glycoforms, 14,569: lysozyme + 2D-ribose − 2H2O (14,569 Da); for Peak area as % of total area of all glycoforms, 14,551: lysozyme + 2D-ribose − 3H2O (14,551 Da); for Peak area as % of total area of all glycoforms, 14,533: lysozyme + 2D-ribose − 5H2O (14,533 Da); for Peak area as % of total area of all glycoforms, 14,515: lysozyme + 2D-ribose − 6H2O (14,515 Da); for Peak area as % of total area of all glycoforms, 14,419: lysozyme + D-ribose − 2H2O (14,419 Da); for Peak area as % of total area of all glycoforms, 14,401: lysozyme + D-ribose − 3H2O (14,401 Da); for Peak area as % of total area of all glycoforms, 14,437: lysozyme + D-ribose − H2O (14,437 Da); for Peak area as % of total area of all glycoforms, 14,496: lysozyme + D-ribose − H2O with one carboxymethylated Lys residue (14,496 Da); for Peak area as % of total area of all glycoforms, 14,364: lysozyme with one carboxymethylated Lys residue (14,364 Da); for Peak area as % of total area of all glycoforms, 14,305: unmodified lysozyme (14,305 Da);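 on all read-outs here: lysozyme incubated with D-ribose, with or without anti-glycation agents, then separated by reversed-phase HPLC and analysed by electrospray mass spectrometry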
[1] = system: bovine serum albumin (BSA)

O=C1C[C@@H](c2ccc(O)cc2)Oc2cc(O)cc(O)c21 [Naringenin]
Peak area as % of total area of all glycoforms, 14,569 (lysozyme): 4.9%
Peak area as % of total area of all glycoforms, 14,551 (lysozyme): 3.1%
Peak area as % of total area of all glycoforms, 14,533 (lysozyme): 1.8%
Peak area as % of total area of all glycoforms, 14,515 (lysozyme): 0.0%
Peak area as % of total area of all glycoforms, 14,419 (lysozyme): 7.5%
Peak area as % of total area of all glycoforms, 14,401 (lysozyme): 0.0%
Peak area as % of total area of all glycoforms, 14,437 (lysozyme): 24.4%
Peak area as % of total area of all glycoforms, 14,496 (lysozyme): 0.0%
Peak area as % of total area of all glycoforms, 14,364 (lysozyme): 0.1%
Peak area as % of total area of all glycoforms, 14,305 (lysozyme): 56.8%
IC50 [1]: 220 µM

O=C(O)c1cc(/N=N/c2ccc(S(=O)(=O)Nc3ccccn3)cc2)ccc1O [Sulfasalazine]
Peak area as % of total area of all glycoforms, 14,569 (lysozyme): 4.7%
Peak area as % of total area of all glycoforms, 14,551 (lysozyme): 4.7%
Peak area as % of total area of all glycoforms, 14,533 (lysozyme): 2.1%
Peak area as % of total area of all glycoforms, 14,515 (lysozyme): 1.3%
Peak area as % of total area of all glycoforms, 14,419 (lysozyme): 8.2%
Peak area as % of total area of all glycoforms, 14,401 (lysozyme): 2.7%
Peak area as % of total area of all glycoforms, 14,437 (lysozyme): 20.6%
Peak area as % of total area of all glycoforms, 14,496 (lysozyme): 1.5%
Peak area as % of total area of all glycoforms, 14,364 (lysozyme): 2.9%
Peak area as % of total area of all glycoforms, 14,305 (lysozyme): 47.2%

NC(=O)NO [Hydroxyurea]
IC50 [1]: > 4000 µM

O=c1cc(-c2ccc(O)c(O)c2)oc2cccc(O)c12 [5,3′,4′-Trihydroxyflavone]
IC50 [1]: 1600 µM

Cc1ncc([N+](=O)[O-])n1CCO [Metronidazole]
IC50 [1]: 660 µM

Cc1ncc([N+](=O)[O-])n1C [Dimetridazole]
IC50 [1]: 460 µM

COC(=O)c1ccc(O)c(N)c1 [Orthoform]
IC50 [1]: 2100 µM

CN(C)c1ccc(O)c2c1C[C@H]1C[C@H]3[C@H](N(C)C)C(O)=C(C(N)=O)C(=O)[C@@]3(O)C(O)=C1C2=O [Minocycline]
IC50 [1]: 46 µM

Oc1ccc(O)cc1 [Hydroquinone]
IC50 [1]: 250 µM

O=c1c(-c2ccc(O)cc2)coc2cc(O)ccc12 [Daidzein]
IC50 [1]: > 4000 µM

CNC(=C[N+](=O)[O-])NCCSCc1ccc(CN(C)C)o1 [Ranitidine]
IC50 [1]: 1100 µM

Nc1c(Cl)cc([N+](=O)[O-])cc1Cl [Botran]
IC50 [1]: > 4000 µM

O=C1CN(/N=C/c2ccc([N+](=O)[O-])o2)C(=O)N1 [Nitrofurantoin]
IC50 [1]: 44 µM
maximum percentage of the inhibition [1]: 40%)

O=S1(=O)OC(c2ccc(O)cc2)(c2ccc(O)cc2)c2ccccc21 [Phenol red]
IC50 [1]: 1800 µM

O=c1cc(CO)occ1O [Kojic acid]
IC50 [1]: > 4000 µM

O=c1c(O)c(-c2cc(O)c(O)c(O)c2)oc2cc(O)cc(O)c12 [Myricetin]
Peak area as % of total area of all glycoforms, 14,569 (lysozyme): 0.0%
Peak area as % of total area of all glycoforms, 14,551 (lysozyme): 0.0%
Peak area as % of total area of all glycoforms, 14,533 (lysozyme): 0.0%
Peak area as % of total area of all glycoforms, 14,515 (lysozyme): 0.0%
Peak area as % of total area of all glycoforms, 14,419 (lysozyme): 1.8%
Peak area as % of total area of all glycoforms, 14,401 (lysozyme): 0.0%
Peak area as % of total area of all glycoforms, 14,437 (lysozyme): 17.7%
Peak area as % of total area of all glycoforms, 14,496 (lysozyme): 0.0%
Peak area as % of total area of all glycoforms, 14,364 (lysozyme): 1.6%
Peak area as % of total area of all glycoforms, 14,305 (lysozyme): 78.9%
IC50 [1]: 54 µM
maximum percentage of the inhibition [1]: 64%)

COCCOC(=O)C1=C(C)NC(C)=C(C(=O)OC(C)C)C1c1cccc([N+](=O)[O-])c1 (stereo not drawn) [Nimodipine]
IC50 [1]: > 4000 µM

Oc1c(Br)cc(Br)c2cccnc12 [Broxyquinoline]
Peak area as % of total area of all glycoforms, 14,569 (lysozyme): 5.7%
Peak area as % of total area of all glycoforms, 14,551 (lysozyme): 4.7%
Peak area as % of total area of all glycoforms, 14,533 (lysozyme): 3.2%
Peak area as % of total area of all glycoforms, 14,515 (lysozyme): 1.7%
Peak area as % of total area of all glycoforms, 14,419 (lysozyme): 7.2%
Peak area as % of total area of all glycoforms, 14,401 (lysozyme): 4.9%
Peak area as % of total area of all glycoforms, 14,437 (lysozyme): 21.0%
Peak area as % of total area of all glycoforms, 14,496 (lysozyme): 1.5%
Peak area as % of total area of all glycoforms, 14,364 (lysozyme): 2.5%
Peak area as % of total area of all glycoforms, 14,305 (lysozyme): 42.2%
IC50 [1]: 390 µM

CC(C)(C)NCC(O)c1cc(O)cc(O)c1 (stereo not drawn) [Terbutaline]
IC50 [1]: > 4000 µM

CC(NCCc1ccc(O)cc1)C(O)c1ccc(O)cc1 (stereo not drawn) [Ritodrine]
IC50 [1]: > 4000 µM

COc1cc(C2Oc3cc([C@H]4Oc5cc(O)cc(O)c5C(=O)[C@@H]4O)ccc3OC2CO)ccc1O (stereo partly drawn) [Silibinin]
IC50 [1]: 750 µM

Cc1cc(O)c2c(c1)C(=O)c1cc(O)cc(O)c1C2=O [Emodin]
IC50 [1]: 3000 µM

COc1cccc2c1cc([N+](=O)[O-])c1c(C(=O)O)cc3c(c12)OCO3 [Aristolochic acid]
IC50 [1]: > 4000 µM

O=[N+]([O-])c1ccc(O)c(Cl)c1 [2-Chloro-4-nitrophenol]
IC50 [1]: 3500 µM

COc1ccc2c(c1)c(CC(=O)O)c(C)n2C(=O)c1ccc(Cl)cc1 [Indomethacin]
Peak area as % of total area of all glycoforms, 14,569 (lysozyme): 3.5%
Peak area as % of total area of all glycoforms, 14,551 (lysozyme): 3.3%
Peak area as % of total area of all glycoforms, 14,533 (lysozyme): 1.6%
Peak area as % of total area of all glycoforms, 14,515 (lysozyme): 0.0%
Peak area as % of total area of all glycoforms, 14,419 (lysozyme): 7.5%
Peak area as % of total area of all glycoforms, 14,401 (lysozyme): 0.5%
Peak area as % of total area of all glycoforms, 14,437 (lysozyme): 18.6%
Peak area as % of total area of all glycoforms, 14,496 (lysozyme): 0.0%
Peak area as % of total area of all glycoforms, 14,364 (lysozyme): 5.1%
Peak area as % of total area of all glycoforms, 14,305 (lysozyme): 58.0%

CC(C)=CCC1=C(O)C(=O)c2ccccc2C1=O [Lapachol]
IC50 [1]: 320 µM

O=C(N[C@H](CO)[C@H](O)c1ccc([N+](=O)[O-])cc1)C(Cl)Cl [Chloramphenicol]
IC50 [1]: 1300 µM

CNCC(O)c1ccc(O)cc1 (stereo not drawn) [Synephrine]
IC50 [1]: > 4000 µM

C[C@H]1c2cccc(O)c2C(=O)C2=C(O)[C@]3(O)C(=O)C(C(N)=O)=C(O)[C@@H](N(C)C)[C@@H]3[C@@H](O)[C@@H]21 [Doxycycline]
IC50 [1]: 33 µM

CC(C)C(=O)Nc1ccc([N+](=O)[O-])c(C(F)(F)F)c1 [Flutamide]
IC50 [1]: 1300 µM

CC(C(O)c1ccc(O)cc1)N1CCC(Cc2ccccc2)CC1 (stereo not drawn) [Ifenprodil]
IC50 [1]: > 4000 µM

O=[N+]([O-])c1cccc(SSc2cccc([N+](=O)[O-])c2)c1 [Nitrophenide]
IC50 [1]: 4000 µM

Oc1c(Cl)cc(Cl)c2cccnc12 [Chloroxine]
IC50 [1]: 1400 µM

CC1=C(/C=C/C(C)=C/C=C/C(C)=C/C=C/C=C(C)/C=C/C=C(C)/C=C/C2=C(C)CCCC2(C)C)C(C)(C)CCC1 [beta-Carotene]
IC50 [1]: 630 µM

COc1cc(/C=C/C(=O)CC(=O)/C=C/c2ccc(O)c(OC)c2)ccc1O [Curcumin]
IC50 [1]: 1100 µM

COC(=O)C1=C(C)NC(C)=C(C(=O)OCCN(C)Cc2ccccc2)C1c1cccc([N+](=O)[O-])c1 (stereo not drawn) [Nicardipine]
IC50 [1]: > 4000 µM

O=c1cc(-c2ccc(O)cc2)oc2cc(O)cc(O)c12 [Apigenin]
IC50 [1]: 130 µM

CN1C(C(=O)Nc2ccccn2)=C(O)c2ccccc2S1(=O)=O [Piroxicam]
IC50 [1]: 730 µM

Cn1cnc([N+](=O)[O-])c1Sc1ncnc2nc[nH]c12 [Azathioprine]
IC50 [1]: 400 µM

O=c1cc(-c2ccccc2)oc2cc(O)cc(O)c12 [Chrysin]
IC50 [1]: 2100 µM

CCS(=O)(=O)CCn1c([N+](=O)[O-])cnc1C [Tinidazole]
IC50 [1]: 700 µM

CO[C@H]1/C=C/O[C@@]2(C)Oc3c(C)c(O)c4c(O)c(c(/C=N/N5CCN(C)CC5)c(O)c4c3C2=O)NC(=O)/C(C)=C\C=C\[C@H](C)[C@H](O)[C@@H](C)[C@@H](O)[C@@H](C)[C@H](OC(C)=O)[C@@H]1C [Rifampicin]
IC50 [1]: 120 µM

O=C(Cn1ccnc1[N+](=O)[O-])NCCO [Etanidazole]
IC50 [1]: 450 µM
